Test results reported in patent US8324346B2, “Bioactive keratin peptides” (Keraplast Technologies, Ltd., priority 2002, dated 2012).

Experiments:
keratinocytes = assay: Mitogenic effects of crude peptide compositions on keratinocytes (OD 530 nm); type: cell-based, human; details: 5 days of exposure, positive control
human dermal fibroblasts = assay: Biological effect of peptide compositions on human dermal fibroblasts (cell proliferation); type: cell-based; details: for increase in cell proliferation: human dermal fibroblasts, positive control
Method: A second set of studies was performed that tested the biological effect of the peptide compositions on human dermal fibroblasts after three and five days of exposure. After three days of exposure, the peptide composition produced a greater than 25% increase in cell proliferation at concentrations between 0.5 and 10 ug/ml. The positive control, […] fibroblast growth factor (bFGF25), produced a greater than 30% increase in cell proliferation. After five days of exposure, peptide compositions at a concentration of 0.5 to 10 ug/ml produced increases in cell proliferation of between 9% and 12%. The positive control produced a greater than 13% increase.
Related in vitro tests confirmed that the mitogenic effect of the peptide compositions on dermal fibroblasts increased with concentration up to nearly 150% of the negative control at 1000 ug/ml concentration. Compositions with greater purity increased the mitogenic effect to over 1000% of the negative control. The positive control in these studies, platelet derived growth factor (PDGF), increased the mitogenic effect to nearly 700% of the negative control.

EGF25: epidermal growth factor (EGF25), positive control in the keratinocyte studies
increase in keratinocyte proliferation (keratinocytes): greater than 25%

PDGF
mitogenic effect, % of the negative control (human dermal fibroblasts; dermal fibroblasts, concentration not given): ~700%

bFGF25: bovine-derived fibroblast growth factor (bFGF25), positive control
increase in cell proliferation (human dermal fibroblasts; five days of exposure): greater than 13% | increase in cell proliferation (human dermal fibroblasts; three days of exposure): greater than 30%
